Measurements: patent US10030012B2, “Piperidin-1-yl and azepin-1-yl carboxylates as muscarinic M4 receptor agonists” (Heptares Therapeutics Limited, priority 2013, dated 2018)
pEC50: −log10 of the molar value.

Columns and labels:
human M4 receptor = human M4 receptor (Homo sapiens (Human), UniProt P08173); assay: In vitro M4 functional assay (intracellular calcium, FLiPR Tetra); assay type: cell-based; conditions: for pEC50: CHOK1 cells stably expressing human M4 receptor and Gα16, calcium flux; for Emax: relative efficacy to an EC100 concentration of acetylcholine, read-out: M4 % RE
Chain of human M4 receptor (P08173 whole entry): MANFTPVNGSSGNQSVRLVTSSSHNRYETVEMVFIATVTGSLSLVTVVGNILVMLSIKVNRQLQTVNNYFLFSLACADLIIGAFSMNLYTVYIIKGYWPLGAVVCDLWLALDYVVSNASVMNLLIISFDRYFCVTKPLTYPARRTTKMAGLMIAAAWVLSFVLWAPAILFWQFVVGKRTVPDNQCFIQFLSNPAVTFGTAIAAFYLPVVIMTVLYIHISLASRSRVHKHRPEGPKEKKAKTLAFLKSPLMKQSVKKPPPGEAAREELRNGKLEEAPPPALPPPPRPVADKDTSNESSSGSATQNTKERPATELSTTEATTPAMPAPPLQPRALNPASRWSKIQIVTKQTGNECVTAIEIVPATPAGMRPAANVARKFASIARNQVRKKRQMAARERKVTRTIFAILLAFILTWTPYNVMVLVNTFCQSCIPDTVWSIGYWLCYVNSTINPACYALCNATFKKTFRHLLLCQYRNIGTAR
Experimental: (§1) In Vitro M4 &M2 Functional Assay
(§2) The functional activity of compounds at the M4 and M2 receptors was determined by measuring changes in the level of intracellular calcium ions caused by signalling cascades mediated by the receptor. Intracellular Calcium levels were measured using a calcium sensitive fluorescent dye, calcium 5 (Molecular Devices) The changes in fluorescence were monitored by a fluorescent imager, FLiPR Tetra (Molecular devices). Increases in intracellular calcium were readily detected upon activation of both receptors by the muscarinic receptor agonist Acetylcholine.
(§3) CHOK1 cells stably expressing human M4 or M2 receptor and co-expressing the accessory g-protein Gα16 were routinely grown as monolayers in Hams-F12 medium (Invitrogen) supplemented with 10% foetal bovine serum (FBS) (Hyclone), 500 ug/mL Geneticin and 250 ug/mL zeocin (both invitrogen) in 5% CO2 at 37° C. Once confluent is cells cryopreserved by freezing at −186° C. in freezing solution (90% FBS 10% DMSO) (Sigma-Aldrich Co.). Twenty-four hours prior to testing cells resuscitated and freezing media removed via centrifugation, cells then seeded in a black walled clear bottom 384 well plates (Corning) at a density of 15,000 cells/well in Hams F12 media supplemented with 10% FBS. On the day of assay, growth media was removed and replaced with 63 μl of Calcium 5 dye solution (Molecular Devices) in assay buffer (HBSS, 20 mM HEPES, 0.1% BSA, 1 mM Probenecid pH7.4 (Sigma-Aldrich Co.)) per well (each vial of Calcium 5 resuspended in 27 mL of assay buffer). Cells were then incubated for 45 minutes at 37° C., 5% CO2. Compound was serially diluted in DMSO (log/half log) before being diluted 1:20 with assay buffer. 7 μl of compound diluted in assay buffer was then added to cells on FLiPR tetra and fluorescence intensity measured for 5 minutes. EC50 values for compounds were determined from ten point half log scale dose-response studies and represent the concentration of compound required to […] maximal response. Curves were generated using the average of duplicate wells for each data point and analyzed using non-linear regression of four parameter dose response. Percentage Relative efficacy (RE) to an EC100 concentration of acetylcholine was reported for all compounds. The results are set out in Table 3 below in which the term “No Response” means that there was no significant response of calcium flux in the assay indicative of agonism.

human M2 receptor = human M2 receptor (Homo sapiens (Human), UniProt P08172); assay: In vitro M2 functional assay (intracellular calcium, FLiPR Tetra); assay type: cell-based; conditions: for M2 EC50 / pEC50: CHOK1 cells stably expressing human M2 receptor and Gα16, calcium flux, No Response = no significant response of calcium flux indicative of agonism; for activation at 10 µM: response at 10 μM compound, relative to an EC100 concentration of acetylcholine, read-out: M2 % RE @ 10 μM
Chain of human M2 receptor (P08172 whole entry): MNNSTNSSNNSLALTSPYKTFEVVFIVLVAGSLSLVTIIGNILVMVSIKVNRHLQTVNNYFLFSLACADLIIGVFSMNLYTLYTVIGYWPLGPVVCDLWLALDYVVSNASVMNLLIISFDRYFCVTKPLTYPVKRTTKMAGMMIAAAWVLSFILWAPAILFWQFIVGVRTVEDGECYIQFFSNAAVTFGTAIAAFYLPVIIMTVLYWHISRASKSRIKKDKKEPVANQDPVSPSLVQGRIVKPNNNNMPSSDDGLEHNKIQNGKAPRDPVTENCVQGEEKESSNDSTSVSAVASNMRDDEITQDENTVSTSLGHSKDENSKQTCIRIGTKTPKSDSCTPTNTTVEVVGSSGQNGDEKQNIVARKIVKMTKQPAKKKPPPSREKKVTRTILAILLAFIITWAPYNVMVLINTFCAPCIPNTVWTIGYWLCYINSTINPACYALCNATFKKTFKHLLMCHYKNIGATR
Experimental: as §1, §2, §3

| Structure (SMILES) | pEC50 (human M4 receptor) | Emax (human M4 receptor) [%] | M2 EC50 (human M2 receptor) | pEC50 (human M2 receptor) | activation at 10 µM (human M2 receptor) [%] | M2 % RE (human M2 receptor; relative efficacy to an EC100 concentration of acetylcholine) [%] |
| --- | --- | --- | --- | --- | --- | --- |
| CCOC(=O)N1CCCC(N2CCC(n3ccc(C)n3)CC2)CC1 (stereo not shown) [Example 16, Ethyl 4-[4-(3-methyl-1H-pyrazol-1-yl)piperidin-1-yl]azepane-1-carboxylate] | 6.40 | 72 | – | < 5.00 | 24 | – |
| CCOC(=O)N1CCCC(N2CCC(c3nccn3CC(=O)NC3CCCCC3)CC2)CC1 (stereo not shown) [Example 2, Ethyl 4-(4-{1-[(cyclohexylcarbamoyl)methyl]-1H-imidazol-2-yl}piperidin-1-yl)azepane-1-carboxylate] | 5.73 | 51 | No Response | – | – | – |
| CCOC(=O)N1CCC(N2CCC(c3cccc(OC)n3)CC2)CC1 [Example 32, Ethyl 4-[4-(6-methoxypyridin-2-yl)piperidin-1-yl]piperidine-1-carboxylate] | 6.66 | 73 | No Response | – | – | – |
| CCOC(=O)N1CCCC(N2CCC(c3cccnc3-c3cnn(C(C)C)c3)CC2)CC1 (stereo not shown) [Example 61, Ethyl 4-(4-{2-[1-(propan-2-yl)-1H-pyrazol-4-yl]pyridin-3-yl}piperidin-1-yl)azepane-1-carboxylate] | 6.82 | 66 | No Response | – | – | – |
| CCOC(=O)N1CCCC(N2CCC(n3nccc3COC)CC2)CC1 (stereo not shown) [Example 23, Ethyl 4-{4-[5-(methoxymethyl)-1H-pyrazol-1-yl]piperidin-1-yl}azepane-1-carboxylate] | 6.12 | 67 | No Response | – | – | – |
| CCOC(=O)N1CCCC(N2CCC(c3cc(C)cnc3OCC)CC2)CC1 (stereo not shown) [Example 42, Ethyl 4-[4-(2-ethoxy-5-methylpyridin-3-yl)piperidin-1-yl]azepane-1-carboxylate] | 7.70 | 82 | No Response | – | – | – |
| CCOC(=O)N1CCCC(N2CCC(c3nccn3CC(=O)NC3CC3)CC2)CC1 (stereo not shown) [Example 19, Ethyl 4-(4-{1-[(cyclopropylcarbamoyl)methyl]-1H-imidazol-2-yl}piperidin-1-yl)azepane-1-carboxylate] | 5.82 | 64 | No Response | – | – | – |
| CCOC(=O)N1CCC(N2CCC(c3cc(C)cnc3OCC)CC2)CC1 [Example 47, Ethyl 4-[4-(2-ethoxy-5-methylpyridin-3-yl)piperidin-1-yl]piperidine-1-carboxylate] | 6.80 | 72 | No Response | – | – | – |
| CCOC(=O)N1CCCC(N2CCC(n3cc(-c4ccc(Cl)cc4)cn3)CC2)CC1 (stereo not shown) [Example 8, Ethyl 4-{4-[4-(4-chlorophenyl)-1H-pyrazol-1-yl]piperidin-1-yl}azepane-1-carboxylate] | 6.49 | 59 | No Response | – | – | – |
| CCOC(=O)N1CCCC(N2CCC(n3nccc3-c3ccnn3C)CC2)CC1 (stereo not shown) [Example 7, Ethyl 4-{4-[5-(1-methyl-1H-pyrazol-5-yl)-1H-pyrazol-1-yl]piperidin-1-yl}azepane-1-carboxylate] | 6.59 | 75 | – | < 5.00 | 26 | – |
| CCOC(=O)N1CCCC(N2CCC(n3nccc3-c3ccc(Cl)cc3)CC2)CC1 (stereo not shown) [Example 5, Ethyl 4-{4-[5-(4-chlorophenyl)-1H-pyrazol-1-yl]piperidin-1-yl}azepane-1-carboxylate] | 6.60 | 49 | – | < 5.00 | 25 | – |
| CCOC(=O)N1CCCC(N2CCC(c3ccncc3OC)CC2)CC1 (stereo not shown) [Example 44, Ethyl 4-[4-(3-methoxypyridin-4-yl)piperidin-1-yl]azepane-1-carboxylate] | 6.43 | 52 | No Response | – | – | – |
| CCOC(=O)N1CCC(N2CCC(c3cccnc3C)CC2)CC1 [Example 46, Ethyl 4-[4-(2-methylpyridin-3-yl)piperidin-1-yl]piperidine-1-carboxylate] | 5.81 | 31 | No Response | – | – | – |
| CCOC(=O)N1CCCC(N2CCC(n3cccc3)CC2)CC1 (stereo not shown) [Example 3, Ethyl 4-[4-(1H-pyrrol-1-yl)piperidin-1yl]azepane-1-carboxylate] | 6.48 | 59 | – | 5.81 | – | 38 |
| CCOC(=O)N1CCCC(N2CCC(c3cccnc3OC)CC2)CC1 (stereo not shown) [Example 35, Ethyl 4-[4-(2-methoxypyridin-3-yl)piperidin-1-yl]azepane-1-carboxylate] | 7.52 | 102 | No Response | – | – | – |
| CCOC(=O)N1CCCC(N2CCC(c3ccncc3)CC2)CC1 (stereo not shown) [Example 30, Ethyl 4-[4-(pyridin-4-yl)piperidin-1-yl]azepane-1-carboxylate] | 5.78 | 27 | No Response | – | – | – |
| CCOC(=O)N1CCCC(N2CCC(c3ccnn3C)CC2)CC1 (stereo not shown) [Example 14, Ethyl 4-[4-(1-methyl-1H-pyrazol-5-yl)piperidin-1-yl]azepane-1-carboxylate] | 6.12 | 55 | No Response | – | – | – |
| CCOC(=O)N1CCCC(N2CCC(c3cnccc3OC)CC2)CC1 (stereo not shown) [Example 48, Ethyl 4-[4-(4-methoxypyridin-3-yl)piperidin-1-yl]azepane-1-carboxylate] | 6.60 | 63 | No Response | – | – | – |

Continued, values first:

| pEC50 (human M4 receptor) | Emax (human M4 receptor) [%] | M2 EC50 (human M2 receptor) | pEC50 (human M2 receptor) | activation at 10 µM (human M2 receptor) [%] | M2 % RE (human M2 receptor; relative efficacy to an EC100 concentration of acetylcholine) [%] | Structure (SMILES) |
| --- | --- | --- | --- | --- | --- | --- |
| 7.07 | 83 | No response | – | – | – | CCOC(=O)N1CCC[C@H](N2CCC(n3cccn3)CC2)CC1 [Example 81, Ethyl (4S)-4-[4-(1H-pyrazol-1-yl)piperidin-1-yl]azepane-1-carboxylate] |
| 6.00 | 52 | No Response | – | – | – | CCOC(=O)N1CCCC(N2CCC(c3cncnc3C)CC2)CC1 (stereo not shown) [Example 75, Ethyl 4-[4-(4-methylpyrimidin-5-yl)piperidin-1-yl]azepane-1-carboxylate] |
| 5.98 | 45 | No Response | – | – | – | CCOC(=O)N1CCCC(N2CCC(c3nnccc3OC)CC2)CC1 (stereo not shown) [Example 71, Ethyl 4-[4-(4-methoxypyridazin-3-yl)piperidin-1-yl]azepane-1-carboxylate] |
| 6.07 | 43 | No Response | – | – | – | CCOC(=O)N1CCCC(N2CCC(c3cccnc3-c3ncco3)CC2)CC1 (stereo not shown) [Example 80, Ethyl 4-{4-[2-(1,3-oxazol-2-yl)pyridin-3-yl]piperidin-1-yl}azepane-1-carboxylate] |
| 6.25 | 43 | No Response | – | – | – | CCOC(=O)N1CCCC(N2CCC(c3nc(C)ncc3OC)CC2)CC1 (stereo not shown) [Example 63, Ethyl 4-[4-(5-methoxy-2-methylpyrimidin-4-yl)piperidin-1-yl]azepane-1-carboxylate] |
| 6.00 | 37 | No Response | – | – | – | CCOC(=O)N1CCCC(N2CCC(c3cccnc3NCC3CC3)CC2)CC1 (stereo not shown) [Example 67, Ethyl 4-(4-{2-[(cyclopropylmethyl)amino]pyridin-3-yl}piperidin-1-yl)azepane-1-carboxylate] |
| 5.50 | 35 | No Response | – | – | – | CCOC(=O)N1CCCC(N2CCC(c3cccnc3-c3ccnn3C)CC2)CC1 (stereo not shown) [Example 64, Ethyl 4-{4-[2-(1-methyl-1H-pyrazol-5-yl)pyridin-3-yl]piperidin-1-yl}azepane-1-carboxylate] |
| 6.68 | 64 | No Response | – | – | – | CCOC(=O)N1CCCC(N2CCC(c3cccnc3CC)CC2)CC1 (stereo not shown) [Example 70, Ethyl 4-[4-(2-ethylpyridin-3-yl)piperidin-1-yl]azepane-1-carboxylate] |
| 6.44 | 53 | No Response | – | – | – | CCOC(=O)N1CCCC(N2CCC(c3cccnc3NC)CC2)CC1 (stereo not shown) [Example 62, Ethyl 4-{4-[2-(methylamino)pyridin-3-yl]piperidin-1-yl}azepane-1-carboxylate] |
| 6.19 | 53 | No Response | – | – | – | CCOC(=O)N1CCCC(N2CCC(c3cccnc3-c3cnn(C)c3)CC2)CC1 (stereo not shown) [Example 73, Ethyl 4-{4-[2-(1-methyl-1H-pyrazol-4-yl)pyridin-3-yl]piperidin-1-yl}azepane-1-carboxylate] |
